# What was measured:
# [1] = target: T1, Tyrosine-protein kinase JAK3 (Homo sapiens, UniProt P52333); experiment: (§1) In Vitro Assay: NCEs were screened using in vitro JAK (1, 2 and 3) kinase assay on ADP Glo platform (Promega). Fixed amount of recombinant purified human JAK (25 ng of JAK1 and 10 ng of JAK2 and JAK3 per reaction, from Life Technologies Ltd) were incubated with increasing concentration of NCEs in 1× kinase reaction buffer (40 mM Tris-Cl, pH7.5, 20 mM MgCl2, 0.1 mg/ml BSA and 50 μM DTT). Enzymatic reaction was initiated by adding a substrate cocktail containing 50 μM of ATP (final concentration) and 5 μg for JAK1 and 2.5 μg for JAK2 and JAK3 of polyGln4Tyr1 (Signal Chem) in total 25 μl of reaction in 96 well plate. The reaction was incubated at room temperature for 1 hr.After 1 hr of incubation equal volume (25 μl per reaction) of ADP Glo was added and incubated at room temperature for 40 min.This was followed by addition of kinase detection reagent (50 μl per reaction) and incubation at room temperature for 30 min. Finally, plate was read for luminescence at an integration time of 500 millisecond per well.
# T1 sequence (P52333 whole entry): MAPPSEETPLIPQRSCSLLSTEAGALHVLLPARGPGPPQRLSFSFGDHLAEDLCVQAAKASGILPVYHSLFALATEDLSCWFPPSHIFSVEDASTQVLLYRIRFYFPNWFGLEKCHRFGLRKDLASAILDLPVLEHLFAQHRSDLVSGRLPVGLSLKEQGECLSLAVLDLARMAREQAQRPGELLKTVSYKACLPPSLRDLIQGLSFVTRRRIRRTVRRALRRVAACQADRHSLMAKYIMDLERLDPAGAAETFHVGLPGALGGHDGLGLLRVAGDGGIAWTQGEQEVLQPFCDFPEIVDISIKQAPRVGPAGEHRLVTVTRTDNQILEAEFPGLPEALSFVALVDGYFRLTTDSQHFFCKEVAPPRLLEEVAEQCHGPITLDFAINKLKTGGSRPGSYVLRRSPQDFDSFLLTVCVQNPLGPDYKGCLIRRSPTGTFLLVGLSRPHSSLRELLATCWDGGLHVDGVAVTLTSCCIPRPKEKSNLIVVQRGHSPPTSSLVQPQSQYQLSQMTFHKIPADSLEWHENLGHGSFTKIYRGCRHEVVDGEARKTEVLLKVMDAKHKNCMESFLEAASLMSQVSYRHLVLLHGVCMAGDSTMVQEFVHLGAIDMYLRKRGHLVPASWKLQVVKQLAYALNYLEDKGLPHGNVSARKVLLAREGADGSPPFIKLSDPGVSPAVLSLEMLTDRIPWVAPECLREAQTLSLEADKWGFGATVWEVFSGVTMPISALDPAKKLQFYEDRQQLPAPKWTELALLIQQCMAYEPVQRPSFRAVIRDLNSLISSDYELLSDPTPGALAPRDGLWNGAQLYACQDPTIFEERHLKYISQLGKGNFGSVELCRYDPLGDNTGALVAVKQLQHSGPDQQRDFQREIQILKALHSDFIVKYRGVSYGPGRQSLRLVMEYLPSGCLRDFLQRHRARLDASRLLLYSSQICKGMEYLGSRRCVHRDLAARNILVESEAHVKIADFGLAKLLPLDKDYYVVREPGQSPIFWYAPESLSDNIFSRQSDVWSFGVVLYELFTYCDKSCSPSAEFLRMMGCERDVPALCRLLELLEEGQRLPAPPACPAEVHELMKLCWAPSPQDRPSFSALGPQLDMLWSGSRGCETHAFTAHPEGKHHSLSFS
# [2] = target: Tyrosine-protein kinase JAK1 (Homo sapiens, UniProt P23458); experiment: as §1
# [3] = target: Tyrosine-protein kinase JAK2 (Homo sapiens, UniProt O60674); experiment: as §1
# Sequence of Tyrosine-protein kinase JAK2 (O60674 whole entry): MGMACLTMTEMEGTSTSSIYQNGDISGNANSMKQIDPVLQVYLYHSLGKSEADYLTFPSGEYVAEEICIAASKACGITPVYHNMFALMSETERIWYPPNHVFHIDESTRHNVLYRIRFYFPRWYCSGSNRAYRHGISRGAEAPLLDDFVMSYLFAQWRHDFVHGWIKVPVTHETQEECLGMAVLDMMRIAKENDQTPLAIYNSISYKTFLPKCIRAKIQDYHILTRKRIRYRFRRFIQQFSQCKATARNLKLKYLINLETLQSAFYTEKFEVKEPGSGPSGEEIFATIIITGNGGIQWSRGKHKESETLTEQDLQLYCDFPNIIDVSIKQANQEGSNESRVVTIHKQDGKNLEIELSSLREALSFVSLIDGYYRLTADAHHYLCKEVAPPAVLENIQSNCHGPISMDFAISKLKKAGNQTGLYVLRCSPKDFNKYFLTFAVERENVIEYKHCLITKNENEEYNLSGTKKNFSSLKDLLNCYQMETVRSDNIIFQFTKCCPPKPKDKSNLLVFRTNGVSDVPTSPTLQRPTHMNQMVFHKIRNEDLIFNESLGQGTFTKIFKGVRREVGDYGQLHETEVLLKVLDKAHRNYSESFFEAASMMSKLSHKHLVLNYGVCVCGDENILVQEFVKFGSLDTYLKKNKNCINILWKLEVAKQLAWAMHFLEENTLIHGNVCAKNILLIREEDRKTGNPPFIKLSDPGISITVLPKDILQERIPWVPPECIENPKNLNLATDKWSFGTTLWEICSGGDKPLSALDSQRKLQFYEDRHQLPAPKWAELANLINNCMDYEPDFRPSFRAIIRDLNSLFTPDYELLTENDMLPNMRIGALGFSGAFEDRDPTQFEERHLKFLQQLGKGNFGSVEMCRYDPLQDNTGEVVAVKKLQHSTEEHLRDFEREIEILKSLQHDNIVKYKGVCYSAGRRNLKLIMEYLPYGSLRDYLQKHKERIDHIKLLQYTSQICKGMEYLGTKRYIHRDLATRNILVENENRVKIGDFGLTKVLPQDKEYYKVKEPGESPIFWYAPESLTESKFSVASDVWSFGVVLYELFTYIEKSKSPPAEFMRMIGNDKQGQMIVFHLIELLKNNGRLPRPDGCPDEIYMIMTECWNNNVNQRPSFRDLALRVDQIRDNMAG
# Sequence of Tyrosine-protein kinase JAK1 (P23458 whole entry): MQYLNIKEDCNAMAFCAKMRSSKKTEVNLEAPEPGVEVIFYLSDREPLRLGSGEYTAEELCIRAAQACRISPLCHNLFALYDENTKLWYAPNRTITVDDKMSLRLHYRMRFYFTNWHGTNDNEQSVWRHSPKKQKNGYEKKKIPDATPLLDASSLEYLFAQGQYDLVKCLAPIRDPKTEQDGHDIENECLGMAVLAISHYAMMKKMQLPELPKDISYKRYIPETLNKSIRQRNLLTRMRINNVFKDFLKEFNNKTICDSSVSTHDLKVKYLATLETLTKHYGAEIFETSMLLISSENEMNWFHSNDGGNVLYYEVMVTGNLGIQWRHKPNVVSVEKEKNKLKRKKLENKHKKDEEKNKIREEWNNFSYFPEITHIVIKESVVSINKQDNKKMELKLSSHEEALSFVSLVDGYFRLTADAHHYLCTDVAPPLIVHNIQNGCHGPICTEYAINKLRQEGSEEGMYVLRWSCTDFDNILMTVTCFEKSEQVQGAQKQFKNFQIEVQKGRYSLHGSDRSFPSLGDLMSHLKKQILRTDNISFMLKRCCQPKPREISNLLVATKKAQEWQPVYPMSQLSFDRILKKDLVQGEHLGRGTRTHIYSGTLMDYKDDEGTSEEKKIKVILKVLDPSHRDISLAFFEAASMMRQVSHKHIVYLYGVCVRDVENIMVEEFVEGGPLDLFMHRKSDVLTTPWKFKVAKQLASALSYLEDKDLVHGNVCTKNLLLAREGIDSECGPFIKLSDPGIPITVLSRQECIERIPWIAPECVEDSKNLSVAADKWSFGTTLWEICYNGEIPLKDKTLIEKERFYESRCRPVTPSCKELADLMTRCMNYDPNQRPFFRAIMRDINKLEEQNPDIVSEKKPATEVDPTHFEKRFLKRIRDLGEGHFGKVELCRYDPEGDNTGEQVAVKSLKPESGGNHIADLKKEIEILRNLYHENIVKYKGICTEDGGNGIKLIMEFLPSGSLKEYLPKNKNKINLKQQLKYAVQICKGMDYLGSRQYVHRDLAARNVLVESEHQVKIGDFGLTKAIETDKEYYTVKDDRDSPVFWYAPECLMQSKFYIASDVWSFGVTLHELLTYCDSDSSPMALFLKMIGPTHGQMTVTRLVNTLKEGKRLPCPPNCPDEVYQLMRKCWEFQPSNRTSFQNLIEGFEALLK
IC50 [1],IC50 [2],IC50 [3],SMILES
16.6 nM,6.7 nM,4.9 nM,N#CCNC(=O)c1ccc(-c2nc(Nc3ccc(N4CCC(N5CCOCC5)CC4)cc3)ncc2F)cc1
62.3 nM,11.7 nM,6.6 nM,N#CCNC(=O)c1ccc(-c2ccnc(Nc3ccc(N4CCC(N5CCOCC5)CC4)cc3)n2)cc1
124 nM,13 nM,20 nM,N#CCNC(=O)c1ccc(-c2ccnc(Nc3ccc(N4CCC(C5=NCCN5)CC4)cc3)n2)cc1

# Reference: ChEMBL document CHEMBL5725466, “N-cyanomethylamides as inhibitors of janus kinase” (2017)
